Results reported in PubChem BioAssay (NCI).
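Dose response: 5 concentrations. Exposure: 48 h. Format: 96-well plates. Endpoint: linear interpolation; highest concentration if not reached. TGI is the concentration that stops growth completely.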

Experiments:
Assay in all cases: DTP human tumour cell line panel, 48 h
[1] = test system: SK-MEL-5 melanoma
[2] = test system: NCI/ADR-RES ovarian
[3] = test system: HOP-92 NSCLC
[4] = test system: HCT-15 colon
[5] = test system: OVCAR-8 ovarian
[6] = test system: 786-0 renal
[7] = test system: EKVX NSCLC
[8] = test system: NCI-H522 lung
[9] = test system: MOLT-4 leukemia
[10] = test system: SR leukemia
[11] = test system: HT29 colon
[12] = test system: TK-10 renal
[13] = test system: M14 melanoma
[14] = test system: COLO 205 colon
[15] = test system: SK-MEL-28 melanoma
[16] = test system: CCRF-CEM leukemia
[17] = test system: OVCAR-3 ovarian
[18] = test system: A549 NSCLC
[19] = test system: RPMI-8226 leukemia
[20] = test system: UACC-257 melanoma
[21] = test system: K-562 leukemia
[22] = test system: RXF 393 renal
[23] = test system: SF-295 CNS
[24] = test system: OVCAR-5 ovarian
[25] = test system: SNB-75 CNS
[26] = test system: UO-31 renal
[27] = test system: MDA-MB-231 breast
[28] = test system: OVCAR-4 ovarian
[29] = test system: SF-539 CNS
[30] = test system: SK-MEL-2 melanoma
[31] = test system: LOX IMVI melanoma
[32] = test system: SW-620 colon
[33] = test system: NCI-H460 lung
[34] = test system: T-47D breast
[35] = test system: DU-145 prostate
[36] = test system: UACC-62 melanoma
[37] = test system: HCT-116 colon
[38] = test system: HL-60(TB) leukemia
[39] = test system: PC-3 prostate
[40] = test system: BT-549 breast
[41] = test system: NCI-H226 lung
[42] = test system: IGROV1 ovarian
[43] = test system: A498 renal
[44] = test system: HCC-2998 colon
[45] = test system: SN12C renal
[46] = test system: SK-OV-3 ovarian
[47] = test system: NCI-H23 lung
[48] = test system: ACHN renal
[49] = test system: MCF7 breast
[50] = test system: MALME-3M melanoma
[51] = test system: SF-268 CNS
[52] = test system: HS 578T breast
[53] = test system: U251 CNS
[54] = test system: MDA-MB-435
[55] = test system: SNB-19 CNS
[56] = test system: HOP-62 NSCLC
[57] = test system: KM12 colon
[58] = test system: CAKI-1 renal

In the case of `Cc1ccc(SC2=C(N(C)C)C(=O)c3ccccc3C2=O)cc1`, the TGI [1] was 8.6 µM, the TGI [2] was 6.35 µM and the TGI [3] was 18.3 µM. For the same compound, the TGI [4] was > 39.9 µM, the TGI [5] was 6.44 µM and the TGI [6] was > 32.2 µM. It also gave a TGI [7] of 20.1 µM, a TGI [8] of 10.5 µM and a TGI [9] of 12.4 µM. It also gave a TGI [10] of 3.84 µM, a TGI [11] of 31 µM and a TGI [12] of 21.6 µM. It also gave a TGI [13] of 16.4 µM, a TGI [14] of 51.5 µM and a TGI [15] of 25.8 µM. It also gave a TGI [16] of 17.5 µM, a TGI [17] of 2.96 µM and a TGI [18] of 30.2 µM. It also gave a TGI [19] of 11.7 µM, a TGI [20] of 15.6 µM and a TGI [21] of 7.68 µM. The TGI [22] was 20.8 µM, the TGI [23] was 25.6 µM and the TGI [24] was 40.3 µM. The TGI [25] was 43.5 µM, the TGI [26] was 21.9 µM and the TGI [27] was 20.1 µM. The TGI [28] was 24.8 µM, the TGI [29] was 9.71 µM and the TGI [30] was 23.5 µM. For the same compound, the TGI [31] was 24.6 µM, the TGI [32] was 16.1 µM and the TGI [33] was 18.5 µM. The TGI [34] was > 38 µM, the TGI [35] was 23 µM and the TGI [36] was 17.8 µM. The TGI [37] was 7.26 µM, the TGI [38] was 16.9 µM and the TGI [39] was 18.7 µM. For the same compound, the TGI [40] was 26.6 µM, the TGI [41] was 25.8 µM and the TGI [42] was 17.6 µM. The TGI [43] was 50.3 µM, the TGI [44] was 32.4 µM and the TGI [45] was 16.6 µM. It also gave a TGI [46] of 41.9 µM, a TGI [47] of 10.4 µM and a TGI [48] of 21.4 µM. It also gave a TGI [49] of 17.5 µM, a TGI [50] of 18.4 µM and a TGI [51] of 18.4 µM. The TGI [52] was > 27.6 µM, the TGI [53] was 23.7 µM and the TGI [54] was 1.22 µM. The TGI [55] was 29.6 µM, the TGI [56] was 23.6 µM and the TGI [57] was 16.4 µM. It also gave a TGI [58] of 9.73 µM.
